Laboratory results taken from ChEMBL document CHEMBL5465560, “Selectivity Literature for EUbOPEN Chemogenomic Library” (2024).

Key:
[1] = molecular target: 1-phosphatidylinositol 3-phosphate 5-kinase (Homo sapiens) (UniProt Q9Y2I7); assay: Selectivity interaction (KinomeScan (DiscoverX)) EUB0000229b PIKFYVE; settings: at 10 µM
[2] = molecular target: Protein kinase C theta type (Homo sapiens, UniProt Q04759); assay: Selectivity interaction (KinomeScan (DiscoverX)) EUB0000595a PRKCQ; settings: at 10 µM
[3] = molecular target: Ephrin type-A receptor 2 (Homo sapiens) (UniProt P29317); assay: Selectivity interaction (Kinase panel (DSF assay)) EUB0001559a EPHA2
[4] = molecular target: Serine/threonine-protein kinase 32C (Homo sapiens) (UniProt Q86UX6); assay: Selectivity interaction (KinomeScan (DiscoverX)) EUB0000045b STK32C
[5] = molecular target: T1, Mitogen-activated protein kinase kinase kinase 6 (Homo sapiens) (UniProt O95382); assay: Selectivity interaction (KinomeScan (DiscoverX)) EUB0001049a MAP3K6; settings: at 1 µM
T1 sequence (whole entry): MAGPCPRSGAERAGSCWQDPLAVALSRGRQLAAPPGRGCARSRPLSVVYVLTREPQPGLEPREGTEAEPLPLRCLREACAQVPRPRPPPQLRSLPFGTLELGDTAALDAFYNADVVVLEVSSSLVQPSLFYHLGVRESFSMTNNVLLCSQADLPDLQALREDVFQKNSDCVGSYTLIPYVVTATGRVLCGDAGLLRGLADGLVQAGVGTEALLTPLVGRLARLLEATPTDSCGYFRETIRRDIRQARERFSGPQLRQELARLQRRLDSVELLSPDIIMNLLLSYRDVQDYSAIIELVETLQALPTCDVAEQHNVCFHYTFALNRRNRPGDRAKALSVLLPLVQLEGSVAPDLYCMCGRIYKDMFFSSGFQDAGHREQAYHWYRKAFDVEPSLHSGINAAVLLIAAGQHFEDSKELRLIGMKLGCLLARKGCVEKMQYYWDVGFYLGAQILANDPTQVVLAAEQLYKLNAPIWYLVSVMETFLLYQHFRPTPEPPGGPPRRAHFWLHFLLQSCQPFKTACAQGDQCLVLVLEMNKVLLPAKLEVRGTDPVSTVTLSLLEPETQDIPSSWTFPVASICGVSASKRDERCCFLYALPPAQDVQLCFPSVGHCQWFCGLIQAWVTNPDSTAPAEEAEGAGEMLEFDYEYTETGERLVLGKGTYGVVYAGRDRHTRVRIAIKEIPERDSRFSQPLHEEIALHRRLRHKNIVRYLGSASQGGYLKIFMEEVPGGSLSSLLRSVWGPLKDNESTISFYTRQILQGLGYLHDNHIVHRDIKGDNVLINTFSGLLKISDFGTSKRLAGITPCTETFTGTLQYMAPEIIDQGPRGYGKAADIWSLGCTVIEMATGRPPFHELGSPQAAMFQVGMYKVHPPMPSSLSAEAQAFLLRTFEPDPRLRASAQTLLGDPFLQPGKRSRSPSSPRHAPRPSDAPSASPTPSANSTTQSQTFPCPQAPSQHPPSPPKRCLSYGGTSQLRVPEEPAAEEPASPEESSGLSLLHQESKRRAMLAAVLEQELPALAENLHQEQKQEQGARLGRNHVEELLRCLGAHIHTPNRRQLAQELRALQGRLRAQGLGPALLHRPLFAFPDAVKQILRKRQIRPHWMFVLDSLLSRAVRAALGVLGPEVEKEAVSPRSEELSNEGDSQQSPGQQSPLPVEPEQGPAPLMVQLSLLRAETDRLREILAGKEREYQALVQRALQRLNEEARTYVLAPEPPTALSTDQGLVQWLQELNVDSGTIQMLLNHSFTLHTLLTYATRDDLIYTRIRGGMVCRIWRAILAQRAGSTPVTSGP

[6] = molecular target: Tyrosine-protein kinase receptor UFO (Homo sapiens) (UniProt P30530); assay: Selectivity interaction (KinomeScan (DiscoverX)) EUB0001049a AXL; settings: at 1 µM
[7] = molecular target: Serine/threonine-protein kinase VRK2 (Homo sapiens) (UniProt Q86Y07); assay: Selectivity interaction (KinomeScan (DiscoverX)) EUB0001049a VRK2; settings: at 1 µM
[8] = molecular target: Serine/threonine-protein kinase N1 (Homo sapiens, UniProt Q16512); assay: Selectivity interaction (ActivX KiNativ screen (ex vivo kinase selectivity in human PBMCs)) EUB0001619a PKN1; type: cell-based; settings: PBMC, at 1 µM
[9] = molecular target: Protein arginine N-methyltransferase 6 (Homo sapiens, UniProt Q96LA8); assay: Selectivity interaction (Scintillation proximity assays) EUB0000255b PRMT6
[10] = molecular target: Mitogen-activated protein kinase 4 (Homo sapiens) (UniProt P31152); assay: Selectivity interaction (KinomeScan (DiscoverX)) EUB0000607a MAPK4; settings: at 10 µM
[11] = molecular target: Tyrosine-protein kinase JAK2 (Homo sapiens, UniProt O60674); assay: Selectivity interaction (NanoBRET assay (HEK293T cells)) EUB0001558a JAK2; type: cell-based, HEK-293T
[12] = molecular target: Focal adhesion kinase 1 (Homo sapiens, UniProt Q05397); assay: Selectivity interaction (ActivX KiNativ screen (kinase selectivity in THP-1 cell lysates)) EUB0000639a PTK2; type: subcellular; settings: lysate, at 0.01 µM
[13] = molecular target: Ribosomal protein S6 kinase alpha-5 (Homo sapiens) (UniProt O75582); assay: Selectivity interaction (KinomeScan (DiscoverX)) EUB0000655a RPS6KA5; settings: at 10 µM
[14] = molecular target: T2, Activin receptor type-1 (Homo sapiens) (UniProt Q04771); assay: Selectivity interaction (KinomeScan (DiscoverX)) EUB0000092b ACVR1; settings: at 10 µM
T2 sequence (whole entry): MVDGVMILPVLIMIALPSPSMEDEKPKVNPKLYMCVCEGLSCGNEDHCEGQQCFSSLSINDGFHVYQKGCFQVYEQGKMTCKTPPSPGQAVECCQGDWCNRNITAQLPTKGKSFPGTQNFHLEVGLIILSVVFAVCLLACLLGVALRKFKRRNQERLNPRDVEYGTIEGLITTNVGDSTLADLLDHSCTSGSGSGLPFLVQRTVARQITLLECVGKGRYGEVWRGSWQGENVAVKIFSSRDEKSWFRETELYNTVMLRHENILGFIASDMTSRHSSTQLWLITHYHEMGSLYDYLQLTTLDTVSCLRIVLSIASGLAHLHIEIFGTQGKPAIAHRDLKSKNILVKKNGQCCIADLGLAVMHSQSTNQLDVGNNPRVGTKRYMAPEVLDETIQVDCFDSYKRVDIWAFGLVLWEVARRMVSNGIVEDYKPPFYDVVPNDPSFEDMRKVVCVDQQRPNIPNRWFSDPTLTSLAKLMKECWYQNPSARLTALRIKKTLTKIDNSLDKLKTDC

[15] = system: Tyrosine-protein kinase ABL1 (Homo sapiens), P00519 [F317L]; assay: Selectivity interaction (Ambit KINOMEscan and KiNATiv profiling in Jurkat cells) EUB0000090b ABL1; type: cell-based; settings: at 1 µM
[16] = molecular target: Calcium/calmodulin-dependent protein kinase kinase 2 (Homo sapiens) (UniProt Q96RR4); assay: Selectivity interaction (Ambit KINOMEscan and KiNATiv profiling in Jurkat cells) EUB0000090b CAMKK2; type: cell-based; settings: at 1 µM

Serine/threonine-protein kinase 32C (Homo sapiens), sequence (Q86UX6 whole entry): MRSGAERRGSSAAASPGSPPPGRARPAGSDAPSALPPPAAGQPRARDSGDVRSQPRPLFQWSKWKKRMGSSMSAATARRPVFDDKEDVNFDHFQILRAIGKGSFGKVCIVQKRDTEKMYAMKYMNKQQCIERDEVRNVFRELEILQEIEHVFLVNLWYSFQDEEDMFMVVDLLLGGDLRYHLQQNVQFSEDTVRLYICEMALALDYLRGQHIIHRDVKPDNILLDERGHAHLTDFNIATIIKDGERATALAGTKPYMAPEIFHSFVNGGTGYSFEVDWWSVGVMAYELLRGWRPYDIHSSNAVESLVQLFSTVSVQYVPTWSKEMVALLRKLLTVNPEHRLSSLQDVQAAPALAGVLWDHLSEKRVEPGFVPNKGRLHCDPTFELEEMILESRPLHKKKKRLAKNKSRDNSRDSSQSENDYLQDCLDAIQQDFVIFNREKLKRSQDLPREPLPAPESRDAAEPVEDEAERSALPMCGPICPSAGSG
Tyrosine-protein kinase ABL1 (Homo sapiens), P00519 [F317L], sequence (P00519 whole entry F317L): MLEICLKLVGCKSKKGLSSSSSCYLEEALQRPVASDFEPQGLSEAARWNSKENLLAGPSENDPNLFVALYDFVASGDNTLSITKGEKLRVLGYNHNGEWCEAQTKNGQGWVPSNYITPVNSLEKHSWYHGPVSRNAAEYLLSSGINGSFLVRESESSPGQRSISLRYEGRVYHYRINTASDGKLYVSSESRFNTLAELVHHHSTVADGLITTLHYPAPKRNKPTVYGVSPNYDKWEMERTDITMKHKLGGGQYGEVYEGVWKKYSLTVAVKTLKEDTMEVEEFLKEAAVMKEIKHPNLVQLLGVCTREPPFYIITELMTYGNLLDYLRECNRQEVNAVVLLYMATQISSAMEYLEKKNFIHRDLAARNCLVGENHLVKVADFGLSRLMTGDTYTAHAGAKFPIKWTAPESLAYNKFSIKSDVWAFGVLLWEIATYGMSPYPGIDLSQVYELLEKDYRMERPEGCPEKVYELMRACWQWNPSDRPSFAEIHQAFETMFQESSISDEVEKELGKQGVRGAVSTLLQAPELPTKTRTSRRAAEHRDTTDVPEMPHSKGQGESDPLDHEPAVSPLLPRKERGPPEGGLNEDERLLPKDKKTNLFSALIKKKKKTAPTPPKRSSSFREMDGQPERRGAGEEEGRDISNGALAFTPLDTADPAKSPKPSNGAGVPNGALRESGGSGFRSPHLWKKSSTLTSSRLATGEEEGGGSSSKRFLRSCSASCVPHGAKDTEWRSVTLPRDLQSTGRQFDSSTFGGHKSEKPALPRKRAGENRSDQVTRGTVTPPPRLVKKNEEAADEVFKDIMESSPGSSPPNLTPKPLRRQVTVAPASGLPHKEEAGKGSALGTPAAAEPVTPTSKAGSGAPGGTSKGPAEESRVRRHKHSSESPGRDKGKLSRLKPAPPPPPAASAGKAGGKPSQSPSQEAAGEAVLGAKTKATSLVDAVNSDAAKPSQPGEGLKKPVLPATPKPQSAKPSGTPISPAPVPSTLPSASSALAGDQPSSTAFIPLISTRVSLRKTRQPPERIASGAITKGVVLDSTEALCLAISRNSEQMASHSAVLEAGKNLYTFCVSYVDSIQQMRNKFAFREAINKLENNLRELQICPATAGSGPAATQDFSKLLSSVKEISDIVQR
Serine/threonine-protein kinase N1, sequence (Q16512 2-942 limits assumed): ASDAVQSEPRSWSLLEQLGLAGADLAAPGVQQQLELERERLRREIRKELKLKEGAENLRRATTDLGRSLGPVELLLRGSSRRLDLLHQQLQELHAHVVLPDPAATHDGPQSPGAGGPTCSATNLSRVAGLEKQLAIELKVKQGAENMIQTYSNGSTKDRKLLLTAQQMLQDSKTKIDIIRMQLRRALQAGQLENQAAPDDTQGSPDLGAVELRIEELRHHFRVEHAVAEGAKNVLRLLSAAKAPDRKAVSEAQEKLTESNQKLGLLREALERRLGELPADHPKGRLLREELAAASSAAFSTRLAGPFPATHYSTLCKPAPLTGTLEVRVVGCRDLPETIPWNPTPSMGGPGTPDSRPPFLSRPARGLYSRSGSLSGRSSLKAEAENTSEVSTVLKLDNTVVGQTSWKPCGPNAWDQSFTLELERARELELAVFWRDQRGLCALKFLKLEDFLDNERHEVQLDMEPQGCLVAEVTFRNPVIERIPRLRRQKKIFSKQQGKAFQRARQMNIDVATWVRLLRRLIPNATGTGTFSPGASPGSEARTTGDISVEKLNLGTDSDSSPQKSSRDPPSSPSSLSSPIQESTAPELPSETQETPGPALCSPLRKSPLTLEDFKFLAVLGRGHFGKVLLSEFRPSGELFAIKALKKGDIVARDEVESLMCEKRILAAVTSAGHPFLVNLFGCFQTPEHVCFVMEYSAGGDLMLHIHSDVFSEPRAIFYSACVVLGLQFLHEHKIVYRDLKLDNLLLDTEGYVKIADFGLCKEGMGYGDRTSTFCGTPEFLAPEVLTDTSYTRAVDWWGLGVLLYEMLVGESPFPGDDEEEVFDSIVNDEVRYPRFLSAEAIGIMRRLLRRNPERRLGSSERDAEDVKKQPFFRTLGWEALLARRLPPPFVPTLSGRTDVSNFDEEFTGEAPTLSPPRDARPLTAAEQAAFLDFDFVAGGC
Mitogen-activated protein kinase 4 (Homo sapiens), sequence (P31152 whole entry): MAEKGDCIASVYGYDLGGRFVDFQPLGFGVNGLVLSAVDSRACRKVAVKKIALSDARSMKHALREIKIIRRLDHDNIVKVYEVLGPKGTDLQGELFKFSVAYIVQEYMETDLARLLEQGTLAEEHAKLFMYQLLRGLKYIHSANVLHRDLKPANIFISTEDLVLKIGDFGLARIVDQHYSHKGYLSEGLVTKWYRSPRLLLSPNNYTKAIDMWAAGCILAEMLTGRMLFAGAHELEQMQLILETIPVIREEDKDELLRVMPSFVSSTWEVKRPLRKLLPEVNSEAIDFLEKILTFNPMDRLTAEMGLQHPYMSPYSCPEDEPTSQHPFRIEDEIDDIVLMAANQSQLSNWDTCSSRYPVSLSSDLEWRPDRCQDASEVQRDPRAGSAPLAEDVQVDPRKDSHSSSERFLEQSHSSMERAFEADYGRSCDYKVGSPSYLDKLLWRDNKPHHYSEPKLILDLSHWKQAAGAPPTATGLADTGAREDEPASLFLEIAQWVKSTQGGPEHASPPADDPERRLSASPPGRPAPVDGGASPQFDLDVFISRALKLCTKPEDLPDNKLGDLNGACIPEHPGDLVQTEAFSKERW
Ephrin type-A receptor 2 (Homo sapiens), sequence (P29317 whole entry): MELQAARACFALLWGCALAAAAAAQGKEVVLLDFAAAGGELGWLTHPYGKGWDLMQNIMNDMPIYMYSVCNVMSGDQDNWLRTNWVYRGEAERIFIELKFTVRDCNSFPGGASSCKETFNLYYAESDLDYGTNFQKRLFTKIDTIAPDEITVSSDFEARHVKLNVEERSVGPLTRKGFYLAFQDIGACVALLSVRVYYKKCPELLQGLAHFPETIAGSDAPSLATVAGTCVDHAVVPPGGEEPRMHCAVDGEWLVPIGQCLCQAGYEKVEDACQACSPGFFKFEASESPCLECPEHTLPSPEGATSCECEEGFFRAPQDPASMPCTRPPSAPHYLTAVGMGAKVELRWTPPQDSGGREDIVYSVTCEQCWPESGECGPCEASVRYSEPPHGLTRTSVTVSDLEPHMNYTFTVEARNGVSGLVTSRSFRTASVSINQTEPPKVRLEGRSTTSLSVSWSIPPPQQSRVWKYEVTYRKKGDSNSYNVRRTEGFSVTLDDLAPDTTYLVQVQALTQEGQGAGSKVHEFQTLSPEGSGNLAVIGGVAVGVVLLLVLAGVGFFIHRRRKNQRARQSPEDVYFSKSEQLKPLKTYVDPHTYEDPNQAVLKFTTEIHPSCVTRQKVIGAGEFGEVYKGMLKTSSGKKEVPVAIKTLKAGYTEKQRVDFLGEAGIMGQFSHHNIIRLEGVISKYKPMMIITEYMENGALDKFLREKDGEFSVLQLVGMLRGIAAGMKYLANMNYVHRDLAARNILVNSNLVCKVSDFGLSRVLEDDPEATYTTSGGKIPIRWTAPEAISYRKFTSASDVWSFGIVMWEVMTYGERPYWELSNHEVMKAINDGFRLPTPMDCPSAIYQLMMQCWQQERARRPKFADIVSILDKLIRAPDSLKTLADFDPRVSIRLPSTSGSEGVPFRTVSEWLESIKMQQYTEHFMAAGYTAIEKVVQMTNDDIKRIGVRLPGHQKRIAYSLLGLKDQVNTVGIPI
Tyrosine-protein kinase receptor UFO (Homo sapiens), sequence (P30530 whole entry): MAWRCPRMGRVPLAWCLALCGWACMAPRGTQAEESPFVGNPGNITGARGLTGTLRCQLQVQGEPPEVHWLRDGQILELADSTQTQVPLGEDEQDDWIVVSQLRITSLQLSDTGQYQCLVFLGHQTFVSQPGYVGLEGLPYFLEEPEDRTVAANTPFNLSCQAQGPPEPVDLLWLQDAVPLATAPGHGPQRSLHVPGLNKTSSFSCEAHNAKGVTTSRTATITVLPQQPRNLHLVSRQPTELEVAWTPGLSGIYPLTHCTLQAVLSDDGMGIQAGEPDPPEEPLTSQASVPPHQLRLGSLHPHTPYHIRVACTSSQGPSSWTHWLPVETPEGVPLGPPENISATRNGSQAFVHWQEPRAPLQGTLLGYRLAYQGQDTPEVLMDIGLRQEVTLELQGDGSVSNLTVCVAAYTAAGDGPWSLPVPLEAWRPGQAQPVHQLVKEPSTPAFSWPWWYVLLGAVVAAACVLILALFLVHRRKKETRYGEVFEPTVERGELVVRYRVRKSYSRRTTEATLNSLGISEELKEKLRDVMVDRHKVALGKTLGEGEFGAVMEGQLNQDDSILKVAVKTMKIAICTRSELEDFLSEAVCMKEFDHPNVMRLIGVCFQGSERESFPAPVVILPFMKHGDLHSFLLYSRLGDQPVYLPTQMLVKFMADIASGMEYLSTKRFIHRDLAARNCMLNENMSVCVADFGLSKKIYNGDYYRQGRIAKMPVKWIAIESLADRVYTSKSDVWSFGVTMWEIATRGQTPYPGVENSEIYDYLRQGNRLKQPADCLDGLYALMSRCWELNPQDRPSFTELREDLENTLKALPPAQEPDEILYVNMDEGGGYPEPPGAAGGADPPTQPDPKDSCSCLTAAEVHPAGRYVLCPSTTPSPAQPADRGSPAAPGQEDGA

COc1cc(N(C)c2ccnc3ccc(C(F)(F)F)cc23)cc(OC)c1OC
% binding [1]: 46%

COCC(=O)NC/C=C/c1ccc2ncnc(Nc3ccc(Oc4ccc(C)nc4)c(C)c3)c2c1 [CP-724714]
% of control [2]: 100%

CN(C(=O)c1cnn2cccnc12)c1cc2c(cc1N1CCOCC1)C(=O)N(C[C@@H](F)C(C)(C)O)C2
dTM [3]: -0.4 K

C=CC(=O)Nc1cc(-n2c(=O)ccc3cnc4ccc(-c5ccc(NS(C)(=O)=O)cc5)cc4c32)ccc1C
% of control ([4]; at 1 µM): 100% | % of control ([4]; at 10 µM): 100%

COc1cc(Nc2nc(C)cc(-c3cnn4nc(OC)ccc34)n2)cc(C(F)(F)F)c1
% of control [5]: 66% | % of control [6]: 100% | % of control [7]: 100%

N#Cc1cccc(-c2c[nH]c3ncnc(N4CCOCC4)c23)c1
% of inhibition [8]: 31%

COCCN1CCC(c2cc(CN(C)C(=O)c3cccc(Oc4ccccc4)c3)ccn2)CC1
IC50 [9]: > 10 µM

CNC(=O)Nc1ccc(-c2nc(N3CC4CCC(C3)O4)c3cnn(C4CCC5(CC4)OCCO5)c3n2)cc1
% of control [10]: 100%

CC(C)(O)[C@H](F)CN1Cc2cc(NC(=O)c3cnn4cccnc34)c(N3CCOCC3)cc2C1=O
EC50 [11]: > 50 µM

CC[C@@H]1[C@H](F)C(=O)N[C@@H]1COc1nccc2cc(C(N)=O)c(OC)cc12 [ZIMLOVISERTIB]
% of inhibition [12]: -47.2%

CN(C)CCOc1ccc(-c2nc(-c3ccncc3)c(-c3ccc4c(c3)CC/C4=N\O)[nH]2)cc1
% of control [13]: 90%

CCC(=O)N1CCN(c2ccc(-n3c(=O)ccc4cnc5ccc(-c6cnc7ccccc7c6)cc5c43)cc2C(F)(F)F)CC1
% of control [14]: 28%

CN(C)C/C=C/C(=O)Nc1ccc(C(=O)N2CCCC(Nc3ncc(Cl)c(-c4c[nH]c5ccccc45)n3)C2)cc1 (configuration not stated)
% of control [15]: 100% | % of control [16]: 81%
